Assay results published in EPA's ToxRefDB 2.

How the values were obtained:
[1] = tested on: dog; settings: Chronic toxicity, beagle, Oral, Feed, dose end: 12 month, group: systemic
[2] = tested on: rat; settings: Multigenerational reproductive toxicity study, sprague dawley, Oral, Feed, dose end: 2 generation
[3] = tested on: mouse; settings: Subchronic oral toxicity in rodents, cd1, Feed, dose end: 13 week, group: systemic, systemic / clinical chemistry / alkaline phosphatase (alp/alk) / alkaline phosphatase (alp/alk) + systemic / in life observation / clinical …
[4] = tested on: mouse; settings: Subchronic oral toxicity in rodents, cd1, Feed, dose end: 6 week, group: systemic, systemic / in life observation / body weight / body weight gain + systemic / organ weight / liver / absolute + systemic / organ weight / …
[5] = tested on: dog; settings: Subchronic oral toxicity in nonrodent, beagle, Feed, dose end: 6 week, group: systemic, systemic / in life observation / body weight / body weight gain + systemic / clinical chemistry / alanine aminotransferase (alt/sgpt) / …
[6] = tested on: mouse; settings: Carcinogenicity, cd1, Oral, Feed, dose end: 18 month, group: systemic
[7] = tested on: rat; settings: Subchronic oral toxicity in rodents, sprague dawley, Feed, dose end: 13 week, group: systemic
[8] = systemic / clinical chemistry / alanine aminotransferase (alt/sgpt) / alanine aminotransferase (alt/sgpt) + systemic / clinical chemistry / …
[9] = systemic / in life observation / clinical signs / moribundity
[10] = group: offspring, systemic / in life observation / body weight / offspring (pup) weight
[11] = group: offspring, systemic / in life observation / body weight / offspring (pup) weight + systemic / organ weight / liver / relative to body weight
[12] = group: parental, systemic / in life observation / body weight / body weight
[13] = systemic / in life observation / body weight / body weight + systemic / in life observation / body weight / body weight gain
[14] = systemic / clinical chemistry / albumin-globulin ratio / albumin-globulin ratio + systemic / organ weight / liver / relative to body weight
[15] = systemic / in life observation / body weight / body weight + systemic / in life observation / body weight / body weight gain + systemic / in…

With `O=C(O)C1(C(=O)Nc2ccc(Cl)cc2Cl)CC1` [Cyclanilide] the LOAEL [1, 8] was 21.2 mg/kg/day, the NOAEL [1, 8] was 5.3 mg/kg/day and the LEL [1, 9] was 1.3 mg/kg/day. The NEL [1, 9] was under 1.3 mg/kg/day, the LEL [2, 10] was 20.2 mg/kg/day and the LOAEL [2, 10] was 20.2 mg/kg/day. It also gave an NEL [2, 11] of 2 mg/kg/day, an NOAEL [2, 11] of 2 mg/kg/day and an LEL [2, 12] of 2 mg/kg/day. For the same compound, the LOAEL [2, 12] was 2 mg/kg/day, the NEL [2, 12] was under 2 mg/kg/day and the NOAEL [2, 12] was under 2 mg/kg/day. It also gave an LEL [3] of 364 mg/kg/day, an LOAEL [3] of 364 mg/kg/day and an NEL [3] of 38 mg/kg/day. For the same compound, the NOAEL [3] was 38 mg/kg/day, the LEL [4] was 552 mg/kg/day and the LOAEL [4] was 552 mg/kg/day. It also gave an NEL [4] of 192 mg/kg/day, an NOAEL [4] of 192 mg/kg/day and an LOAEL [5] of over 20 mg/kg/day. For the same compound, the NOAEL [5] was at least 20 mg/kg/day, the LEL [6, 13] was 8.41 mg/kg/day and the LOAEL [6, 13] was 168 mg/kg/day. It also gave an NEL [6, 13] of under 8.41 mg/kg/day, an NOAEL ([6]; systemic / in life observation / body weight / body weight + systemic / in life observation / body weight / body weight gain + systemic / …) of 41.8 mg/kg/day and an LEL [7, 14] of 32.1 mg/kg/day. It also gave an NEL [7, 14] of under 32.1 mg/kg/day, an LOAEL [7, 15] of 113 mg/kg/day and an NOAEL [7, 15] of 54.6 mg/kg/day.
